In ChEMBL document CHEMBL4402560, “Sarco/Endoplasmic Reticulum Calcium ATPase Inhibitors: Beyond Anticancer Perspective” (J Med Chem, 2020):
Values belong to the compound of their own block, whether it stands above or below them.

Columns and labels:
[1] = Competitive inhibition of SERCA (unknown origin) by liquid scintillation counting method; parameters: species or system Homo sapiens
[2] = molecular target: Sodium/potassium-transporting ATPase; experiment: Competitive inhibition of Sodium/potassium-transporting ATPase (unknown origin) by liquid scintillation counting method; assay type: protein-complex assay, Homo sapiens
[3] = molecular target: T1, Sarcoplasmic/endoplasmic reticulum calcium ATPase 1 (Oryctolagus cuniculus, UniProt P04191); experiment: Inhibition of rabbit skeletal muscle microsomes SERCA1a
T1 sequence (P04191 whole entry): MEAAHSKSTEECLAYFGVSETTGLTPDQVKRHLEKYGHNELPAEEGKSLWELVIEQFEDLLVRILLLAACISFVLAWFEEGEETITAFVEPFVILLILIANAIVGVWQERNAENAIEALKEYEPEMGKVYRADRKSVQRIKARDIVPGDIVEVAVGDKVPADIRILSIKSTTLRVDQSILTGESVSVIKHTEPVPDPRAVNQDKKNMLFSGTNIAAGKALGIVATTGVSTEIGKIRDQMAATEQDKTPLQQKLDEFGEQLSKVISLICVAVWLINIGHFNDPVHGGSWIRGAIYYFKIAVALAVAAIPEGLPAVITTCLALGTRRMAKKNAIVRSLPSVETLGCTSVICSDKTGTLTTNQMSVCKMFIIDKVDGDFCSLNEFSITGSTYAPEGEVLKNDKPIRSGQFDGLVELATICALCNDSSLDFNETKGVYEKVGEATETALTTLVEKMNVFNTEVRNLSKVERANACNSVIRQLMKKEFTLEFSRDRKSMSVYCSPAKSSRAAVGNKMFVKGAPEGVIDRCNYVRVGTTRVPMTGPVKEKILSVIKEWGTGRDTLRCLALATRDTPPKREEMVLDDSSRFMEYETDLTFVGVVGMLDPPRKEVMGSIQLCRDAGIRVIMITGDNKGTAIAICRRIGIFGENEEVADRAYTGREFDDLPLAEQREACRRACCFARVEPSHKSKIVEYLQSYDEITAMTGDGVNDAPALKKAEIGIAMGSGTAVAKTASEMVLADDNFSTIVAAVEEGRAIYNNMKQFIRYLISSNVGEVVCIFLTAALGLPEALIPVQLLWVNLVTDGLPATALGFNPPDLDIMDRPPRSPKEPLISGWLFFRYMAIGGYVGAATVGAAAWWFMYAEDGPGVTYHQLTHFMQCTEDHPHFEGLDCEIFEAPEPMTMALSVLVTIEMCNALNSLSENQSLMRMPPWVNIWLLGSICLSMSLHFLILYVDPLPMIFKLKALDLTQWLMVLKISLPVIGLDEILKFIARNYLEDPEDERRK

[4] = molecular target: T1, Sarcoplasmic/endoplasmic reticulum calcium ATPase 1; experiment: Inhibition of rabbit SERCA1a incubated for 10 mins by enzyme-coupled method
[5] = Inhibition of rabbit skeletal muscle microsomes SERCA incubated for 3 mins by [gamma32P]ATP based radiometric assay; parameters: species or system Oryctolagus cuniculus
[6] = molecular target: Sarcoplasmic/endoplasmic reticulum calcium ATPase 1 (Homo sapiens, UniProt O14983); experiment: Inhibition of SERCA1a (unknown origin) incubated for 10 mins by enzyme-coupled method
Sarcoplasmic/endoplasmic reticulum calcium ATPase 1 (Homo sapiens, UniProt O14983), sequence (O14983 whole entry): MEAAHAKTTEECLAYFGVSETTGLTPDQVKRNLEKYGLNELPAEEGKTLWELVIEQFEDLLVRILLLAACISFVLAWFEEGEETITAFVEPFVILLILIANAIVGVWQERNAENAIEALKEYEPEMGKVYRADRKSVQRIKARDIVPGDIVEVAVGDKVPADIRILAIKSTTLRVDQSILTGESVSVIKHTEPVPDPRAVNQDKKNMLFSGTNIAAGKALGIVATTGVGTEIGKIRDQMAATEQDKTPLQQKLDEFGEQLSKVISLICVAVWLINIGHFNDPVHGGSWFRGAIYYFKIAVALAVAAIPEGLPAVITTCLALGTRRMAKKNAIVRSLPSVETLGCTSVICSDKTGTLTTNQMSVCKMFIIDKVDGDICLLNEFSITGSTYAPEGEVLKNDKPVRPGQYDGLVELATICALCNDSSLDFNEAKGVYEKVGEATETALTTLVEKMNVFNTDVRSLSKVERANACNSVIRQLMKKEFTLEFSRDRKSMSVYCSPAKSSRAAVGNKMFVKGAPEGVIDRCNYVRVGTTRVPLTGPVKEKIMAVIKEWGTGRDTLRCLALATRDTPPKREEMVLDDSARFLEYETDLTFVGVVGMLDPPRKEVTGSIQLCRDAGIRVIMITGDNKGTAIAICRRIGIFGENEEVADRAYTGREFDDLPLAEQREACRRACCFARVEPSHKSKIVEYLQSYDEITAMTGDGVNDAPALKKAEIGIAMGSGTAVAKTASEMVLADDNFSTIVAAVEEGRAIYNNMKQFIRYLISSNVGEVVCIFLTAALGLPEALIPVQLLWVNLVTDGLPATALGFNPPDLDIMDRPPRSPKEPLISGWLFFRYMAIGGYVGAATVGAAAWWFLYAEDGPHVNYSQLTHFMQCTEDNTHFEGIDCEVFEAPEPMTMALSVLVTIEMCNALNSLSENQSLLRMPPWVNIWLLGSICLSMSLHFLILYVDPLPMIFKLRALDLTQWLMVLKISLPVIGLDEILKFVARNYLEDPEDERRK

[7] = molecular target: T1, Sarcoplasmic/endoplasmic reticulum calcium ATPase 1; experiment: Inhibition of rabbit skeletal muscle microsomes SERCA1a incubated for 10 mins by enzyme-coupled method
[8] = Inhibition of SERCA (unknown origin); parameters: species or system Homo sapiens
[9] = Inhibition of Sodium/potassium-transporting ATPase in porcine brain peincubated for 5 mins followed by addition of ATP and measured after 15 mins; assay type: tissue-based, Sus scrofa domesticus
[10] = Inhibition of Sodium/potassium-transporting ATPase in guinea pig heart peincubated for 5 mins followed by addition of ATP and measured after 15 mins; assay type: tissue-based, Cavia porcellus
[11] = Inhibition of Sodium/potassium-transporting ATPase in guinea pig brain peincubated for 5 mins followed by addition of ATP and measured after 15 mins; assay type: tissue-based, Cavia porcellus
[12] = Inhibition of Sodium/potassium-transporting ATPase in dog kidney peincubated for 5 mins followed by addition of ATP and measured after 15 mins; assay type: tissue-based, Canis lupus familiaris
[13] = molecular target: T1, Sarcoplasmic/endoplasmic reticulum calcium ATPase 1; experiment: Inhibition of SERCA1a in rabbit microsomes
[14] = molecular target: Sarcoplasmic/endoplasmic reticulum calcium ATPase 3 (Mus musculus, UniProt Q64518); experiment: Inhibition of SERCA3 in mouse testicular microsomes; parameters: species or system Testis
Sarcoplasmic/endoplasmic reticulum calcium ATPase 3, sequence (Q64518 whole entry): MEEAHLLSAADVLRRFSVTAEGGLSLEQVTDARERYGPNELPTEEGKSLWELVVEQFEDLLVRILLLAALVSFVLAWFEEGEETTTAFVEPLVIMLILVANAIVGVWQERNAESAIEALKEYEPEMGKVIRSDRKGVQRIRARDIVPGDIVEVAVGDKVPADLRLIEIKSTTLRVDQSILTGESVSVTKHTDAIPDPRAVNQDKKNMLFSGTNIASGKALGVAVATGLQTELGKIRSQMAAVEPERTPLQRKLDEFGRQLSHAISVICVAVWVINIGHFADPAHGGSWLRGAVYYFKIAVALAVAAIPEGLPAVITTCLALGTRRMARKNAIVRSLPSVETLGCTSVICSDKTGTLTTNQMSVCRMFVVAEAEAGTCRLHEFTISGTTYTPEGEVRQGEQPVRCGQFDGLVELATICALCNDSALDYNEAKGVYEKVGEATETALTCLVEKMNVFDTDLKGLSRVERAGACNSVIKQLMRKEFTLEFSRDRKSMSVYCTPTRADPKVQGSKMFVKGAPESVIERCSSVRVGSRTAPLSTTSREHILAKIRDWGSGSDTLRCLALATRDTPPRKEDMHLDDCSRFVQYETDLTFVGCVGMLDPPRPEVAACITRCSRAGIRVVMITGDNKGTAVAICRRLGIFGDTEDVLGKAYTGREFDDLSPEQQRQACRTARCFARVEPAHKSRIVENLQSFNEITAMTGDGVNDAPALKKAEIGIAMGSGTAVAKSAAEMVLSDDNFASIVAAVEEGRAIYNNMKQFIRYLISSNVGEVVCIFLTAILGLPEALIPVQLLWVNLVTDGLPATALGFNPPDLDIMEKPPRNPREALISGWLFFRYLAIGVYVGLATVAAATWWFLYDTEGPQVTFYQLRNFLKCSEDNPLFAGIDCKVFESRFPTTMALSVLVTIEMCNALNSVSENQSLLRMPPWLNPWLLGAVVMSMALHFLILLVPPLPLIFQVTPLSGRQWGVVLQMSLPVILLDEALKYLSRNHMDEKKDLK

[15] = molecular target: Sarcoplasmic/endoplasmic reticulum calcium ATPase 2 (Mus musculus, UniProt O55143); experiment: Inhibition of SERCA2b in mouse testicular microsomes; parameters: species or system Testis
Sarcoplasmic/endoplasmic reticulum calcium ATPase 2, sequence (O55143 whole entry): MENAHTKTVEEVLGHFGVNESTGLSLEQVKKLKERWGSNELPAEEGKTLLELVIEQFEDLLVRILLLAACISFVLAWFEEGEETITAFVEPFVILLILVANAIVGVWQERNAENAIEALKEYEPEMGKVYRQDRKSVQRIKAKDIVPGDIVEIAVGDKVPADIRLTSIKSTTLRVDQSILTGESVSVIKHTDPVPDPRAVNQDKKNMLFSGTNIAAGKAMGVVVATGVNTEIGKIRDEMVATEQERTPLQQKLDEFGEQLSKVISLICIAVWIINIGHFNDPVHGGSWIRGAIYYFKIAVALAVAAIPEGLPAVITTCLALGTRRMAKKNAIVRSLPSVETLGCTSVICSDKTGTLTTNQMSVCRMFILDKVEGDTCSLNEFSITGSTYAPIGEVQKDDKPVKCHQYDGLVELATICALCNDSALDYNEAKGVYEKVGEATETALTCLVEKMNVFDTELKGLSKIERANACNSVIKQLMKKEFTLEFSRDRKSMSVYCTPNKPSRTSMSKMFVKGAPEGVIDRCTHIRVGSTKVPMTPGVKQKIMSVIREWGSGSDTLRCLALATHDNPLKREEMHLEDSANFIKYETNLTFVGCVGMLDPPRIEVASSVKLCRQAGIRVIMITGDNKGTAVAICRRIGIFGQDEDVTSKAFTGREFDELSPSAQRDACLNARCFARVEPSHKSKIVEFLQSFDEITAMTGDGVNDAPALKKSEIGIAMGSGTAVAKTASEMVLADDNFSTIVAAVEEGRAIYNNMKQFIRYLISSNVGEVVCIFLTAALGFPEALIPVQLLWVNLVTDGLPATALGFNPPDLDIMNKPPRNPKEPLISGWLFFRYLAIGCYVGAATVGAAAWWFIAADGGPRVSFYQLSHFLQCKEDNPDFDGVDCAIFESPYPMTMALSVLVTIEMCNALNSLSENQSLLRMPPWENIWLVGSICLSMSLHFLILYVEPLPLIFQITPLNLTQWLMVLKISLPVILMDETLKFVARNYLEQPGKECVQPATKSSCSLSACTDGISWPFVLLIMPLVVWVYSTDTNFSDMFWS

[16] = molecular target: T1, Sarcoplasmic/endoplasmic reticulum calcium ATPase 1; experiment: Inhibition of rabbit SERCA1a
[17] = Inhibition of fish liver microsomes SERCA by enzyme-coupled method; parameters: species or system Squalius cephalus
[18] = molecular target: Potassium-transporting ATPase (Sus scrofa, UniProt P19156); experiment: Inhibition of pig gastric mucosa Potassium-transporting ATPase by malachite green based colorimetric method; assay type: protein-complex assay, Sus scrofa domesticus
Oryctolagus cuniculus [19] = species on record: Oryctolagus cuniculus; experiment: Inhibition of rabbit kidney Sodium/potassium-transporting ATPase by PK/LDH method
Oryctolagus cuniculus [20] = species on record: Oryctolagus cuniculus; experiment: Inhibition of rabbit kidney Sodium/potassium-transporting ATPase by malachite green based colorimetric method
[21] = Inhibition of SERCA in chicken cerebellar microsomes; parameters: species or system Gallus gallus, Cerebellum
[22] = molecular target: Sarcoplasmic/endoplasmic reticulum calcium ATPase 2 (Mus musculus) (UniProt O55143); experiment: Inhibition of SERCA2 in C57BL/6 mouse primary neurons at 30 uM by UV-Vis spectrophotometric method relative to control
Sarcoplasmic/endoplasmic reticulum calcium ATPase 2 (Mus musculus), sequence (O55143 whole entry): as above

HeLa = experiment: Antiproliferative activity against human HeLa cells; assay type: functional, cell-based
[23] = molecular target: Sarcoplasmic/endoplasmic reticulum calcium ATPase 1 (Mus musculus) (UniProt Q8R429); experiment: Inhibition of SERCA1 in C57BL/6 mouse primary neurons at 30 uM by UV-Vis spectrophotometric method relative to control
Sarcoplasmic/endoplasmic reticulum calcium ATPase 1 (Mus musculus), sequence (Q8R429 whole entry): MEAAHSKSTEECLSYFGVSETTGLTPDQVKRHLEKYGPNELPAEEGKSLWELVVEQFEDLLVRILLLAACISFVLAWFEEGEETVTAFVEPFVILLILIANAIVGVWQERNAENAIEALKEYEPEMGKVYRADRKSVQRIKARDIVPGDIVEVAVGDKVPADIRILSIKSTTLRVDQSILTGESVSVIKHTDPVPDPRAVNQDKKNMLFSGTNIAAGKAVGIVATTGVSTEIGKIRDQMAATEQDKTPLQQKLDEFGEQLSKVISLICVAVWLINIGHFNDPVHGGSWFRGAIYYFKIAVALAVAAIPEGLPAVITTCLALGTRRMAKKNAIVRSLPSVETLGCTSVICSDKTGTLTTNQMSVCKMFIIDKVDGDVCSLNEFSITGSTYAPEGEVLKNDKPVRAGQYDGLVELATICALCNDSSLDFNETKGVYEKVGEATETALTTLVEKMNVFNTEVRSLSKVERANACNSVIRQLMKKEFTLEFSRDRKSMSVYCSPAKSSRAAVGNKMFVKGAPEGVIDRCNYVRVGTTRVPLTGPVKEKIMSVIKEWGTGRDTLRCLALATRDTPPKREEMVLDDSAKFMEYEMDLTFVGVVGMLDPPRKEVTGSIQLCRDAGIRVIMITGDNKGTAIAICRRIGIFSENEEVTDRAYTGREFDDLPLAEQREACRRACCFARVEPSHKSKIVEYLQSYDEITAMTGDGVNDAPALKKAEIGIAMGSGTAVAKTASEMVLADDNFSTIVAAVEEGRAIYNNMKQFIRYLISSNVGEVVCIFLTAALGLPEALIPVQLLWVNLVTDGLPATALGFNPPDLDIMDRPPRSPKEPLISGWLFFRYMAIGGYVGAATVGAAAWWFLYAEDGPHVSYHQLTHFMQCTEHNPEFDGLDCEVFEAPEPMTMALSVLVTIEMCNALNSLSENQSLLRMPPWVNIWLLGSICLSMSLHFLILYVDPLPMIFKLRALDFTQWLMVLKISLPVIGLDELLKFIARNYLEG

[24] = Inhibition of porcine cerebellar microsomes SERCA2b incubated for 10 mins by enzyme-coupled method; parameters: species or system Sus scrofa domesticus, Cerebellum

- Ki [1]: 20 µM
- Ki [2]: 0.32 µM
- IC50 [3]: 29 µM
Compound: N=C(N)SCc1cc(CSC(=N)N)c(Br)c(CSC(=N)N)c1Br

Compound: C/C=C(\C)C(=O)O[C@@H]1C[C@H]2C(=C1C)[C@@H]1OC(=O)[C@@](C)(O)[C@@]1(O)[C@@H](OC(=O)[C@H](C)CC)C[C@@]2(C)OC(C)=O
- IC50 [4]: 20 µM

Compound: COc1ccc2c(c[n+](C)c3c4cc5c(cc4ccc23)OCO5)c1OC [CHELERYTHRINE]
- IC50 [5]: 1.5 µM
- IC50 [6]: 27 µM
- IC50 [7]: 1.2 µM

Compound: CC1=CCC[C@@H]2[C@@](C)(CC/C(C)=C/Cn3c[n+](C)c4ncnc(N)c43)[C@H](C)CC[C@@]12C
- IC50 [8]: 5.58 µM
- IC50 [9]: 11 to 29 µM
- IC50 [10]: 11 to 29 µM
- IC50 [11]: 11 to 29 µM
- IC50 [12]: 11 to 29 µM

Compound: CCCCCCCCCc1ccc(O)cc1 [4-NONYLPHENOL]
- IC50 [13]: 0.35 to 6 µM
- IC50 [14]: 0.35 to 6 µM
- IC50 [15]: 0.35 to 6 µM
- IC50 [16]: 0.35 to 6 µM
- IC50 [17]: 4 µM

- IC50 [18]: 5.2 µM
- K0.5 (Oryctolagus cuniculus [19]): 24 to 30 µM
- K0.5 (Oryctolagus cuniculus [20]): 24 to 30 µM
Compound: Clc1ccccc1C(c1ccccc1)(c1ccccc1)n1ccnc1 [CLOTRIMAZOLE]

Compound: SODIUM ORTHOVANAD
- IC50 [21]: 10 to 100 µM

- IC50 [8]: 50 µM
- inhibition [22]: 18%
- IC50 (HeLa): 10 µM
- inhibition [23]: 10%
Compound: C[C@H]1O[C@@H](O[C@H]2CC[C@@]3(C)[C@@H](CC[C@]4(C)[C@@H]3C=C[C@]35OC[C@@]6(CCC(C)(C)C[C@H]63)[C@H](O)C[C@]54C)[C@]2(C)CO)[C@H](O)[C@@H](O[C@@H]2O[C@H](CO)[C@@H](O)[C@H](O)[C@H]2O)[C@H]1O

Compound: Clc1ccc(C(c2ccc(Cl)cc2)[n+]2ccn(CC(OCc3ccc(Cl)cc3Cl)c3ccc(Cl)cc3Cl)c2)cc1 (configuration not stated) [CALMIDAZOLIUM CHLORIDE]
- IC50 [7]: 0.5 µM
- IC50 [24]: 0.5 µM
